# From patent CN105267200A, “一种黄酮类化合物的应用” (Shanghai Institute of Organic Chemistry of CAS, priority 2014, dated 2016)
# Biological target: T1, mTORC1 (Homo sapiens, UniProt P42345)
# T1 construct: purchased sigma试剂有限公司 (Sigma) SRP0364
# Experiment: mTORC1 enzyme activity inhibition (phosphorylation of 5-FAM substrate peptide STTPGGTLFSTTPG), capillary electrophoresis with laser-induced fluorescence
# Assay type: biochemical
# Settings: mTORC1 31.1 nM, substrate peptide 2 μM, 20 min; for inhibition at 1.25 µM: compound 1.25 μM, read-out: inhibition of the catalytic activity of mTORC1
# T1 sequence (P42345 1362-2549 limits assumed): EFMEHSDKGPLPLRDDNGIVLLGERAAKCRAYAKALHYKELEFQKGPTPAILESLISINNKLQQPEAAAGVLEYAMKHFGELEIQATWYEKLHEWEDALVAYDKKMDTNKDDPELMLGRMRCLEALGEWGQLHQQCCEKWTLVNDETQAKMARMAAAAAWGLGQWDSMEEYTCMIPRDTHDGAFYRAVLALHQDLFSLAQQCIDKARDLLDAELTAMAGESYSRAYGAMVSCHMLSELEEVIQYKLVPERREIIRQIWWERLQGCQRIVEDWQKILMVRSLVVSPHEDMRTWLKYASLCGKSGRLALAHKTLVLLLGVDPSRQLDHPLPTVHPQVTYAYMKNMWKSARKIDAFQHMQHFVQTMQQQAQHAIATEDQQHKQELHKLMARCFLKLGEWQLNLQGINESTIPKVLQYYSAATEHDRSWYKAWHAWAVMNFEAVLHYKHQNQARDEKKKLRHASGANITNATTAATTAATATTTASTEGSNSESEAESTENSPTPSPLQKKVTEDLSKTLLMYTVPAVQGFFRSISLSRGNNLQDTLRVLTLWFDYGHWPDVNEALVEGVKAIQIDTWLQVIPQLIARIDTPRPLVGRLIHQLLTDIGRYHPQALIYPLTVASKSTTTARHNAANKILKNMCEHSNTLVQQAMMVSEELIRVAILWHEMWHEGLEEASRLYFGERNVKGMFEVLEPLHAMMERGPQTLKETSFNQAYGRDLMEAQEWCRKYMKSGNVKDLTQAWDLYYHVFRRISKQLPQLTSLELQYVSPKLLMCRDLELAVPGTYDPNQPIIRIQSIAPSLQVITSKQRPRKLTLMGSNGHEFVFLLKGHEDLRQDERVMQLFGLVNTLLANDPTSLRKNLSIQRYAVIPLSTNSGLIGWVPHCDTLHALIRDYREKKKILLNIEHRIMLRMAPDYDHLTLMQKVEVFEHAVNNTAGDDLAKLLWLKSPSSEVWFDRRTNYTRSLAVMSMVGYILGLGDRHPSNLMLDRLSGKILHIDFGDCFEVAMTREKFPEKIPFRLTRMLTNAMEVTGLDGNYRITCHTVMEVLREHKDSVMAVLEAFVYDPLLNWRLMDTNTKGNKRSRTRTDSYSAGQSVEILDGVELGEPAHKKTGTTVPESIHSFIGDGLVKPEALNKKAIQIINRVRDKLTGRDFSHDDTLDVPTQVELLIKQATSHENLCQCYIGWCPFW
Compound,IC50 (nonlinear fit Origin 8.0),inhibition percentage (quercetin 0.05 nmol/L),inhibition percentage (quercetin 0.5 nmol/L),inhibition percentage (quercetin 5 nmol/L),inhibition percentage (quercetin 50 nmol/L),inhibition percentage (quercetin 250 nmol/L),"inhibition of mTORC1 phosphorylation of the substrate peptide (in words, electropherogram Fig. 1C) (quercetin 0.5 μM, 25℃)",inhibition percentage (quercetin 500 nmol/L),inhibition percentage (quercetin 5×10^3 nmol/L),inhibition percentage (quercetin 5×10^4 nmol/L),inhibition percentage (quercetin 5×10^5 nmol/L),inhibition at 1.25 µM
O=c1c(O)c(-c2ccc(O)c(O)c2)oc2cc(O)cc(O)c12 [槲皮素],377 nM,0%,0%,0%,8%,47%,可以有效抑制,53%,97%,100%,100%,–
"O=c1c(O[C@@H]2O[C@H](CO)[C@H](O)[C@H](O)[C@H]2O)c(-c2ccc(O)c(O)c2)oc2cc(O)cc(O)c12 [金丝桃苷, reference compound]",–,–,–,–,–,–,–,–,–,–,–,25%
"O=c1cc(-c2ccccc2)oc2cc(O)c(O)c(O)c12 [黄芩素, reference compound]",–,–,–,–,–,–,–,–,–,–,–,25%
